± gives the standard deviation of the reports.
SMILES | glass transition temperature [°C]
*CCOc1ccc(S(=O)(=O)c2ccc(OCCOP(=O)(O*)Oc3ccccc3)cc2)cc1 (repeat unit) | 49.00
*c1ccc(-c2nc3cc(Oc4ccc5nc(-c6ccccc6)c(-c6ccc(-n7c(=O)c8cc9c(=O)n(*)c(=O)c9cc8c7=O)cc6)nc5c4)ccc3nc2-c2ccccc2)cc1 (repeat unit) | 274.00
*c1ccc(CCc2ccc(N3C(=O)C(=O)N(c4ccc(CCc5ccccc5N5C(=O)C(=O)N(*)C5=O)cc4)C3=O)cc2)cc1 (repeat unit) | 220.00
*c1ccc(Oc2ccc(-c3cnc4ccc(-c5ccc6ncc(*)nc6c5)cc4n3)cc2)cc1 (repeat unit) | 305.00
*CC(*)CNc1ccc([N+](=O)[O-])cc1[N+](=O)[O-] (repeat unit) | 160.00
*c1cccc(N2C(=O)c3ccc(Oc4ccc(C(C)(C)c5ccc(Oc6ccc7c(c6)C(=O)N(*)C7=O)cc5)cc4)cc3C2=O)c1 (repeat unit) | 217.50
*OC(F)(F)COC(=O)c1cccc(C(=O)OCC(*)(F)F)c1 (repeat unit) | 28.00
*c1cccc(P(C)(=O)c2cccc(N3C(=O)c4ccc(NC(=O)OCCOc5ccc(C(C)(C)c6ccc(OCCOC(=O)Nc7ccc8c(c7)C(=O)N(*)C8=O)cc6)cc5)cc4C3=O)c2)c1 (repeat unit) | 211.00
*CC(=O)O* (repeat unit) | 45.00
*CC(C)(C)C1CC=C(*)CC1 (repeat unit) | 77.00
*CC(*)c1ccc(C(F)(F)C(F)(F)C(F)(F)C(F)(F)C(F)(F)C(F)(F)C(F)(F)F)cc1 (repeat unit) | 42.00
*CC(*)c1c(F)c(F)c(OCC(F)(F)C(F)(F)F)c(F)c1F (repeat unit) | 61.00
*c1ccc(-c2nc3ccccc3o2)c(*)c1 (repeat unit) | 229.00
*c1ccc(-c2nnc(-c3cccc(-c4nnc(*)o4)c3)o2)cc1 (repeat unit) | 278.00
*c1ccc(Oc2ccc(S(=O)(=O)c3ccc(Oc4ccc(-c5nc6ccccc6n5-c5ccc(-n6c(*)nc7ccccc76)cc5)cc4)cc3)cc2)cc1 (repeat unit) | 270.00
*/C=C/c1cc(OCCCCCC)c(*)cc1OC (repeat unit) | 60.00
*[O][Zn][O]C(=O)c1ccccc1C(=O)OCCCCCOC(=O)NCCCCCCNC(=O)OCCCCCOC(=O)c1ccccc1C(*)=O (repeat unit) | -4.30
*CC(=O)NCCCCCCNC(=O)CC1COC(*)CO1 (repeat unit) | 73.00
*CC(*)(C)CC (repeat unit) [Poly(2-methylbutene)] | -11.58 ± 9.3
*c1ccc(N2C(=O)c3ccc(Oc4ccc(Sc5ccc(Oc6ccc7c(c6)C(=O)N(*)C7=O)cc5)cc4)cc3C2=O)cc1 (repeat unit) | 238.00
*C1C2CCC(C2)C1* (repeat unit) | 240.00
*c1ccc(C(=O)OCCCCCCOc2ccc(/C=C/C(=O)/C=C/c3ccc(OCCCCCCOC(=O)c4ccc(-c5nnc(*)o5)cc4)cc3)cc2)cc1 (repeat unit) | 62.00
*C(CC(C)C)C(=O)Nc1ccc(Oc2ccc(NC(=O)Nc3ccc(Cc4ccc(NC(=O)Nc5ccc(Oc6ccc(NC(=O)C(CC(C)C)n7c(=O)c8cc9c(=O)n(*)c(=O)c9cc8c7=O)cc6)cc5)cc4)cc3)cc2)cc1 (repeat unit) | 181.40
*CC(O)CCCCC(O)CN(*)c1ccc(N(C)C)cc1 (repeat unit) | 72.00
*c1ccc(Oc2ccc(C(=O)c3ccc(Oc4ccc(-c5nc(-c6ccc(-c7nc(*)c(-c8ccccc8)[nH]7)cc6)[nH]c5-c5ccccc5)cc4)cc3)cc2)cc1 (repeat unit) | 276.00
*CC(*)OC(=O)c1ccc(OC(=O)CCC)cc1 (repeat unit) | 61.00
*CNC(=O)OCCOC(=O)NCc1ccc(C(C)(C)c2ccc(*)o2)o1 (repeat unit) | 50.00
*C(=O)c1ccc2c(c1)C(=O)N(c1ccc(Oc3ccc(C(=O)c4ccc(C(=O)c5ccc(Oc6ccc(N7C(=O)c8ccc(*)cc8C7=O)cc6)cc5)cc4)cc3)cc1)C2=O (repeat unit) | 233.00
*c1ccc(Cc2ccc(-c3nc(-c4cccc(-c5nnc(-c6ccccc6)c(*)n5)n4)nnc3-c3ccccc3)cc2)cc1 (repeat unit) | 205.00

The remaining lines, values ahead:

glass transition temperature [°C] | SMILES
20.00 | *O[Si](C)(C)CCCCCCOC(=O)C(C)Oc1ccc(OC(=O)c2ccc(-c3ccc(OCCCCCCCCCC[Si](*)(C)C)cc3)cc2)cc1[N+](=O)[O-] (repeat unit)
120.00 | *OC(COC(=O)c1ccccc1-c1ccccc1C(*)=O)COc1ccc(/N=N/c2ccc(C#N)cc2)cc1 (repeat unit)
175.00 | *Oc1ccc(S(=O)(=O)c2ccc(Oc3ccc(Sc4ccc(*)cc4)cc3)cc2)cc1 (repeat unit)
15.00 | *CC(*)C(=O)OCCCCCCCCOC(=O)c1ccc(OC(=O)c2ccc(C#N)cc2)cc1 (repeat unit)
160.00 | *c1ccc(C(=O)Oc2ccc3ccc(OC(=O)c4ccc(N5C(=O)CC(SCCOCCSC6CC(=O)N(*)C6=O)C5=O)cc4)cc3c2)cc1 (repeat unit)
79.00 | *Oc1ccc(CC(NC(=O)CCc2ccc(OC(=O)COCC(*)=O)cc2)C(=O)OCC)cc1 (repeat unit)
220.00 | *Oc1ccc(NC(=O)c2ccc([Si](C)(C)c3ccc(C(*)=O)cc3)cc2)cc1 (repeat unit)
236.00 | *Oc1ccc(Oc2ccc(NC(=O)c3ccc(Oc4ccc(Oc5ccc(C(=O)Nc6ccc(*)cc6)cc5)cc4)cc3)cc2)cc1 (repeat unit)
252.00 | *Oc1ccc(NC(=O)c2cc(NC(=O)c3ccc(OC(C)=O)cc3)cc(C(=O)Nc3ccc(Oc4ccc(-c5ccc(*)cc5)cc4)cc3)c2)cc1 (repeat unit)
98.00 | *Oc1ccc(OC(=O)c2ccc(OCCCCCCOc3ccc(C(*)=O)cc3)cc2)cc1/N=N/c1ccc(C#N)cc1 (repeat unit)
303.00 | *Nc1cccc(NC(=O)c2ccc(NC(=O)c3ccc([Si](C)(C)c4ccc(C(=O)Nc5ccc(C(*)=O)cc5)cc4)cc3)cc2)c1 (repeat unit)
99.00 | *CC(C)(CC)COC(=O)c1ccc(-c2ccc(C(=O)O*)cc2)cc1 (repeat unit)
149 ± 0.6 | *Oc1ccc(C(c2ccc(OC(*)=O)cc2)C(C)C)cc1 (repeat unit) [Poly[1,1-(2-methyl propane) bis(4-phenyl)carbonate]]
235.00 | *Oc1ccc(N(CC)c2ccc(/C=C(\C#N)C(=O)NC3CCCCC3NC(=O)/C(C#N)=C/c3ccc(N(CC)c4ccc(*)cc4)cc3)cc2)cc1 (repeat unit)
328.00 | *c1ccc2c(c1)C(=O)N(c1cccc(C(=O)Nc3ccc(NC(=O)c4ccc(NC(=O)c5cccc(N6C(=O)c7ccc(C(*)(C(F)(F)F)C(F)(F)F)cc7C6=O)c5)cc4)cc3)c1)C2=O (repeat unit)
117.00 | *Oc1ccc(OC(=O)c2ccc(C(*)=O)cc2Oc2ccc(-c3ccccc3)cc2)cc1 (repeat unit)

— the PolyMetriX glass transition set
